Measurements taken from patent publication US9974290B2, “Animal model and method for studying gene-gene interactions” (UNIVERSITY OF SOUTH FLORIDA, priority 2015, dated 2018).

System: Raji B cells
Assay: Apoptosis assay in Raji B cells treated with PS-341
Format: cell-based
Conditions: Raji B cells treated with PS-341 (FIG. 11B); effect can be rescued by LRBA knockdown
Method: FIGS. 2A, 2B, 2C-1, 2C-2, 2D, and 2E. LRBA interacts with NFkB and regulates cell survival. FIG. 2A: LRBA was stably knocked down in Raji cells by the short hairpin (sh) RNA technique in Raji B cells. NFkB activity was measured by an NFkB luciferase reporter. FIG. 2B: The phospho-NFkB (pS529) levels were detected by Phosflow Kit. FIGS. 2C-1 and 2C-2: TNFα (FIG. 2C-1) and IL10 (FIG. 2C-2) proteins levels were measured by the human Th1/Th2 cytokine bead-array kit. FIG. 2D: Apoptosis assay. Raji B cells were treated with various stress stimuli including proteasome inhibitors, serum starvation and bacterial infection. Apoptosis was detected by Annexin V-PE and 7-AAD. FIG. 2E: LRBA (−/−) ES cell clones were obtained by culturing LRBA (+/−) ES cells with 1 mg/ml G418 for ˜two weeks. Equal number of ES cells was plated into each well of a 96-well plate. The average cell numbers were counted from three wells at each time point.
FIGS. 11A-11E. LRBA interacts with important genes in regulating apoptosis and proliferation. […] FIG. 11A: NFkB activity was measured by an NFkB luciferase reporter. The Phosphorylated (P−) NFkB (pS529) levels were detected by Phosflow Kit. […] The average cell numbers were counted from three wells at each time point. […] Cell lysates from WT or LRBA KD stable Raji cells were analyzed by Western blot. Protein levels were quantified with Quantity One software. […]

## CC(C)C[C@H](NC(=O)[C@H](Cc1ccccc1)NC(=O)c1cnccn1)B(O)O [PS-341]
  apoptosis: promotes apoptosis
